Reference: patent publication EP4745118A1, “HYDROXAMIC ACID COMPOUND OR PHARMACEUTICALLY ACCEPTABLE SALT THEREOF, AND USE THEREOF AND PREPARATION METHOD THEREFOR” (priority 2023, dated 2025)

How the values were obtained:
[1] = tested on: Escherichia coli ATCC BAA2469 (CRE, NDM-1-producing); assay: In vivo antibacterial activity, intraperitoneal infection in mice (survival over 7 days); conditions: for effective dose of in vivo antibacterial activity: mice with intraperitoneal infection by Escherichia coli ATCC BAA2469, intravenous; for Animal survival rate / Number of surviving animals: mice, one intravenous administration 1 hour post-infection, 7 days; for Number of surviving animals: 5 animals per group
Procedure: Mice were randomly grouped based on body weight, with 5 mice in each group, regardless of gender. The infectious bacteria was Escherichia coli ATCC BAA2469 (CRE, NDM-1-producing). The test bacterial solution was diluted with 5% high-activity dry yeast. Mice received intraperitoneal injection of 0.5 mL of 100% minimum lethal dose (100% MLD) bacterial solution. One intravenous administration was given at 1 hour post-infection at a dose volume of 10 mL/kg. Animal survival numbers were observed over 7 days, and survival rates were calculated.

[2] = target: T1, recombinant Escherichia coli LpxC enzyme (rLpxC) (Escherichia coli, UniProt P0A725); assay: Inhibition of recombinant Escherichia coli LpxC enzyme activity (LC-MS); assay type: biochemical; conditions: 37°C, 30 minutes reaction, substrate UDP-3-O (R-hydroxytetradecanoyl)-N-acetylglucosamine
T1 sequence (P0A725 1-305): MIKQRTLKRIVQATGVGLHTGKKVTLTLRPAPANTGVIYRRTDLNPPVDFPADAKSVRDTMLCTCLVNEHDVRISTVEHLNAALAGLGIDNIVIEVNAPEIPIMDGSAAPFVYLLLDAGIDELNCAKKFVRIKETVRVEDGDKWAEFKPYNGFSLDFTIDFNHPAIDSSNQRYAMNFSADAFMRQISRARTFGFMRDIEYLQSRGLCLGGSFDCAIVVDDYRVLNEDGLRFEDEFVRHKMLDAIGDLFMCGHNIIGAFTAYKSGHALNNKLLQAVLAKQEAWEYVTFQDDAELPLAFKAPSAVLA
Procedure: Preparation of recombinant Escherichia coli LpxC enzyme (rLpxC). 2 µL of recombinant Escherichia coli LpxC enzyme (6.29 mg/mL) was added to 18 µL of distilled water. After thorough mixing, 2 µL of this mixture was added to 1042.4 µL of distilled water and mixed well to prepare a 36 nM working solution.
The substrate was UDP-3-O (R-hydroxytetradecanoyl)-N-acetylglucosamine, with UDP-α-D-N-Acetylglucosamine Disodium Salt as the internal standard. Mobile phase A: 90% water-10% acetonitrile containing 10 mM ammonium acetate; B: acetonitrile.
Reaction system: Corresponding solutions were prepared as per the table below, and placed in a 37°C metal bath, and mixed at 300 rpm for 10 minutes. After mixing for 10 minutes, 10 µl of 250 µM substrate was added to each group to initiate the reaction, and placed in a 37°C metal bath and reacted at 300 rpm for 30 minutes.
Termination solution: 1.1 µL of 1 mM internal standard was added to 2 mL of acetonitrile. 1.5 mL of EP tubes were taken and 100 µL of termination solution was added to each EP tube. The concentration of the internal standard in the final 350 µL system is 100 ng/mL.
Detection: 10 µL of reaction solution was added to 100 µL of the termination solution in an EP tube, mixed thoroughly, and then 240 µL of distilled water was added and mixed well, centrifuged at 14,000 rpm for 5 minutes. 70 µL of supernatant was transferred to an LC-MS vial and API 6500 Qtrap LC-MS system was used to measure substrates and metabolites. The median inhibition concentrations (IC50) of the four optical isomers and ACHN-975 against rLpxC enzyme were calculated. Table 4 Inhibitory activity of 4 optical isomers and control drug against recombinant Escherichia coli LpxC enzyme

| SMILES | effective dose of in vivo antibacterial activity [1] | Animal survival rate ([1]; dose 0.35 mg/kg) [%] | Number of surviving animals ([1]; dose 0.35 mg/kg) [individuals] | Animal survival rate ([1]; dose 0.7 mg/kg) [%] | Number of surviving animals ([1]; dose 0.7 mg/kg) [individuals] | Animal survival rate ([1]; dose 1.4 mg/kg) [%] | Number of surviving animals ([1]; dose 1.4 mg/kg) [individuals] | IC50 [2] [nM] | Animal survival rate ([1]; dose 1.5 mg/kg) [%] | Number of surviving animals ([1]; dose 1.5 mg/kg) [individuals] | Animal survival rate ([1]; dose 3 mg/kg) [%] | Number of surviving animals ([1]; dose 3 mg/kg) [individuals] | Animal survival rate ([1]; dose 6 mg/kg) [%] | Number of surviving animals ([1]; dose 6 mg/kg) [individuals] |
| --- | --- | --- | --- | --- | --- | --- | --- | --- | --- | --- | --- | --- | --- | --- |
| COC[C@@H]1C[C@@H]1C#CC#Cc1ccc(C(=O)N[C@H](C(=O)NO)C(C)(C)N)cc1 [Id, N-(S)-3-amino-1-hydroxyamino-3-methyl-1-oxobutan-2-yl-4-[[(1S,2R)-2-(methoxymethylene)cyclopropyl]but-1,3-diynyl]benzamide] | below 1.5 mg/kg | 0 | 0 | 0 | 0 | 60 | 3 | 0.892 | – | – | – | – | – | – |
| COC[C@H]1C[C@@H]1C#CC#Cc1ccc(C(=O)N[C@H](C(=O)NO)C(C)(C)N)cc1 [Ib, N-(S)-3-amino-1-hydroxyamino-3-methyl-1-oxobutan-2-yl-4-[[(1S,2S)-2-(methoxymethylene)cyclopropyl]but-1,3-diynyl]benzamide] | below 1.5 mg/kg | – | – | – | – | 60 | – | 0.857 | – | – | – | – | – | – |
| CO[C@H]1CCC[C@@H]1C#CC#Cc1ccc(C(=O)N[C@H](C(=O)NO)C(C)(C)N)cc1 [A] | > 3 mg/kg | – | – | – | – | – | – | 4.68 | 0 | 0 | 0 | 0 | 20 | 1 |
| COC[C@H]1C[C@H]1C#CC#Cc1ccc(C(=O)N[C@H](C(=O)NO)C(C)(C)N)cc1 [Ic, N-(S)-3-amino-1-hydroxyamino-3-methyl-1-oxobutan-2-yl-4-[[(1R,2S)-2-(methoxymethylene)cyclopropyl]but-1,3-diynyl]benzamide] | below 1.5 mg/kg | 0 | 0 | – | – | 80 | – | 0.905 | – | – | – | – | – | – |
| CC(C)(N)[C@H](NC(=O)c1ccc(C#CC#C[C@@H]2C[C@H]2CO)cc1)C(=O)NO [ACHN-975] | > 1.5 mg/kg | – | – | – | – | – | – | 1.07 | 0 | 0 | 60 | 3 | 100 | 5 |
| COC[C@@H]1C[C@H]1C#CC#Cc1ccc(C(=O)N[C@H](C(=O)NO)C(C)(C)N)cc1 [Ia, N-(S)-3-amino-1-hydroxyamino-3-methyl-1-oxobutan-2-yl-4-[[(1R,2R)-2-(methoxymethylene)cyclopropyl]but-1,3-diynyl]benzamide] | below 1.5 mg/kg | 0 | 0 | – | – | 80 | 4 | 1.07 | – | – | – | – | – | – |
| COCC1CC1C#CC#Cc1ccc(C(=O)NC(C(=O)NO)C(C)(C)N)cc1 (mixture of isomers) [Ia/Ib racemate] | below 1.5 mg/kg | 0 | 0 | 0 | 0 | 40 | 2 | 1.03 | – | – | – | – | – | – |
